According to US6127379A, “Benzopyran, benzothiopyran and benzofuran derivatives as 5-HT4 antagonists” (SmithKline Beecham p.l.c., priority 1994, dated 2000):
Where a name gives a salt, the structure may show the parent alone.

Experiments:
5-HT4 receptor [1] = biological target: T1, 5-HT4 receptor (Cavia porcellus, UniProt O70528); assay: Guinea pig colon longitudinal muscle-myenteric plexus, 5-HT-evoked contraction; type: cell-based; details: guinea pig distal colon
T1 construct: guinea pig distal colon longitudinal muscle-myenteric plexus, 5-HT-evoked contraction
Protocol: (§1) 5-HT4 RECEPTOR ANTAGONIST ACTIVITY
Male guinea-pigs, weighing 250-400g are used. Longitudinal muscle-myentericplexus preparations, approximately 3 cm long, are obtained from the distal colon region. These are suspended under a 0.5 g load in isolated tissue baths containing Krebs solution bubbled with 5%, CO2 in O2 and maintained at 37° C. In all experiments, the Krebs solution also contains methiothepin 10^-7 M and granisetron 10^-6 M to block effects at 5-HT1, 5-HT2 and 5-HT3 receptors.
After construction of a simple concentration-response curve with 5-HT, using 30 s contact times and a 15 min dosing cycle, a concentration of 5-HT is selected so as to obtain a contraction of the muscle approximately 40-70% maximum(10^-9 M approx). The tissue is then alternately dosed every 15 min with this concentration of 5-HT and then with an approximately equi-effective concentration of the nicotine receptor stimulant, dimethylphenylpiperazinium (DMPP). After obtaining consistent responses to both 5-HT and DMPP, increasing concentrations of a putative 5-HT4 receptor antagonist are then added to the bathing solution. The effects of this compound are then determined as a percentage reduction of the contractions evoked by 5-HT or by DMPP. […] A compound which reduces the response to 5-HT but not to DMPP is believed to act as a 5-HT4 receptor antagonist.

5-HT4 receptor [2] = assay: 5-HT-induced motility in dog gastric pouch; type: in vivo; details: dose of 10 μg kg^-1
Protocol: as §1
4) 5-HT-induced motility in dog gastric pouch
Compounds are tested in the in vivo method described in "Stimulation of canine motility by BRL 24924, a new gastric prokinetic agent", Bermudez et al, J. Gastrointestinal Motility, 2(4), 281-286.

5-HT4 receptor [3] = biological target: 5-HT4 receptor (Sus scrofa, UniProt Q6Q253); assay: Piglet atria spontaneous beating screen; type: cell-based; details: piglet spontaneously beating atria
Protocol: as §1
Compounds were tested in the piglet spontaneous beating screen (Naunyn-Schmiedeberg's Arch. Pharmacol 342, 619-622). pKB (-log10 KB) value for the compound of Examples 3 and 7 were 9.8 and 7.7 respectively.

T1 sequence (O70528 whole entry): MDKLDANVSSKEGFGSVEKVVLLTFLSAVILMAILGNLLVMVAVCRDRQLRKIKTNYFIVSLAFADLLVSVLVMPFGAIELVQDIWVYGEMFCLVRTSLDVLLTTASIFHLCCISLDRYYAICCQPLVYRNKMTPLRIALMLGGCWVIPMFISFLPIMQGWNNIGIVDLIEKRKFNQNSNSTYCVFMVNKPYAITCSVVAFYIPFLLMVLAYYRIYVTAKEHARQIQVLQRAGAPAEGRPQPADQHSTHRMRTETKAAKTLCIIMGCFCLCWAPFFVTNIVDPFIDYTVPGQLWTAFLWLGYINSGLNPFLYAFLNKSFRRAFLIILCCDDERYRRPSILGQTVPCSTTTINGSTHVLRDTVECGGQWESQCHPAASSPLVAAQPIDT
5-HT4 receptor (Sus scrofa, UniProt Q6Q253), sequence (Q6Q253 1-402): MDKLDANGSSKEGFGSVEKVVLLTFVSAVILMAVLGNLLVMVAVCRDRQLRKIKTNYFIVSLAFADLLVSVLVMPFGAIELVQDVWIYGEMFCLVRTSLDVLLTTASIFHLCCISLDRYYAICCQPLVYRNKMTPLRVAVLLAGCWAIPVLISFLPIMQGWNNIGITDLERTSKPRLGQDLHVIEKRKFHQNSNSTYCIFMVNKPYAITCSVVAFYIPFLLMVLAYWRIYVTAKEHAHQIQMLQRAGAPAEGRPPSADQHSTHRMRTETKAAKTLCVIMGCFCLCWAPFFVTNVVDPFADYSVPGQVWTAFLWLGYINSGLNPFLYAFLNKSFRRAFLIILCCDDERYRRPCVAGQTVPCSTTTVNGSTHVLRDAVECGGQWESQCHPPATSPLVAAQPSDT

Structure (SMILES) | 5-HT4 receptor antagonist activity (in words) (5-HT4 receptor [1]) | inhibition of 5-HT-induced motility (5-HT4 receptor [2]) | pKB (-log10 KB) (5-HT4 receptor [3])
CCCCN1CCC(CNC(=O)c2cc(Cl)cc3c2OCCC3)CC1 [Example E8, (1-Butyl-4-piperidyl)methyl-6-chloro-[2H]-3,4-dihydro-1-benzopyran-8-carboxamide hydrochloride] | particularly good activity |  | 
CCCCN1CCC(COC(=O)c2cc(Cl)cc3c2OCCC3)CC1 [Example E3, (1-Butyl-4-piperidyl)methyl-6-chloro-[2H]-3,4-dihydro-1-benzopyran-8-carboxylate] | particularly good activity | showed inhibition | 9.8
CCCCN1CCC(CNC(=O)c2cc(Cl)c(N)c3c2OCCC3)CC1 [Example E12, 5-Amino-(1-butyl-4-piperidyl)methyl-6-chloro-[2H]-3,4-dihydro-1-benzopyran-8-carboxamide] | particularly good activity |  | 
O=C(OCCN1CCCCC1)c1cc(Cl)cc2c1OCCC2 [Example E7, (1-Piperidyl)ethyl-6-chloro-[2H]-3,4-dihydro-1-benzopyran-8-carboxylate hydrochloride] |  |  | 7.7
